Results published in patent US11427546B2, “Form of isoquinoline sulfonamide” (D. WESTERN THERAPEUTICS INSTITUTE, INC., priority 2018, dated 2022).
“Also recorded” adds a separate entry of the source. Structures can show the parent of a compound that is named as a salt.

Legend:
Format in all cases: physicochemical
[1] = Moisture absorption stability comparative test in the ambient atmosphere; details: ambient atmosphere 25° C.-28° C./67%-83% RH; for appearance (moisture absorption): Day 7
Experimental: Moisture Absorption Stability Comparative Test in the Ambient Atmosphere
About 100 mg of each of the compound (1) obtained in Reference Example 1 and the compound (2) of the present invention obtained in an Example was weighed out in a plastic container and allowed to stand in the ambient atmosphere (25° C.-28° C./67%-83% RH), while minimizing the influence of wind pressure, foreign matter entry, and the like from above and all directions, for 7 days. On Day 0 and Day 7, samples were weighed and examined for appearance.

[2] = Heat stability comparative test; details: 70° C., airtight glass vial
Experimental: Heat Stability Comparative Test
About 20 mg of each of the compound (1) of Reference Example 1 and the crystal of the compound (2) of the present invention obtained in an Example was weighed out in a glass vial and stored in a thermostat chamber kept at 70° C. in an airtight state (NA-100N Incubator from NISSIN) for 14 days. On Day 0, Day 7, and Day 14, compound (1) and the compound (2) of the present invention were examined for appearance and purity (HPLC).

[3] = Water solubility comparative test; details: for transparency of aqueous solution by visual observation: about 100 mg in 2 mL purified water (5% aqueous solution), room temperature; for precipitate in aqueous solution: about 100 mg in 2 mL purified water, 1 day later
Experimental: Water Solubility Comparative Test
About 100 mg of each of the compound (1) of Reference Example 1 and the crystal of the compound (2) of the present invention was weighed out in a glass vial, 2 mL of purified water was added, and the mixture was vigorously shaken in an airtight state. After being allowed to stand until the liquid surface fluctuation ceased, the aqueous solution was examined for transparency by visual observation at room temperature.

[4] = Moisture absorption stability comparative test at 50° C./70% RH
Experimental: Moisture Absorption Stability Comparative Test at 50° C./70% RH
A 100-mg weight of each of the crystals of compounds (3) and (4) obtained in Reference Examples 2 and 3, respectively, and the compound (2) of the present invention obtained in an Example was weighed out in a plastic container and allowed to stand under 50° C./70% RH conditions in a thermo-hygrostat chamber (IH400 from Yamato Scientific Co., Ltd.).

appearance (moisture absorption) [1] | precipitate in aqueous solution [3] | change (appearance, weight) after prolonged standing ([4]; after 3 days of standing) | SMILES | percent increase in weight ([1]; Day 7, about 100 mg solid) | appearance and purity (HPLC) (heat stability) ([2]; Day 14) | transparency of aqueous solution by visual observation [3] | appearance change due to moisture absorption ([4]; after 1 hour of standing) | weight increase ([4]; after 1 hour of standing, 100 mg solid) | appearance / property (heat stability) ([2]; Day 7, monohydrochloride) | transparency of aqueous solution by visual observation ([3]; monohydrochloride)
no weight gain or appearance change | no precipitate was found | no change was observed | C[C@H](CNC[C@@](C)(O)c1ccccc1)NS(=O)(=O)c1ccc2cnccc2c1 [compound (2), N—[(R)-1-{(S)-2-hydroxy-2-phenylpropylamino}propan-2-yl]isoquinoline-6-sulfonamide dihydrochloride anhydride] | did not at all exhibit any weight change; also recorded: no weight gain | stable, with no change in appearance nor decomposition; also recorded: stable | extremely clear, showing complete dissolution; also recorded: colorless and clear | no appearance change | no appearance change nor weight gain; also recorded: did not at all exhibit any weight change | – | –
– | – | – | C[C@H](CNCCc1ccccc1)NS(=O)(=O)c1ccc2cnccc2c1.Cl.Cl [compound (3), (R)—N-{1-(phenetylamino)propan-2-yl}isoquinoline-6-sulfonamide dihydrochloride, reference compound] | – | – | – | marked appearance change due to moisture absorption | – | – | –
evident moisture absorption phenomenon | a precipitate was found | – | C[C@H](CNC[C@@](C)(O)c1ccccc1)NS(=O)(=O)c1ccc2cnccc2c1.Cl [compound (1), N—[(R)-1-{(S)-2-hydroxy-2-phenylpropylamino}propan-2-yl]isoquinoline-6-sulfonamide monohydrochloride, reference compound] | – | – | – | – | – | marked property degradation; also recorded: unstable with an evident change in appearance | translucent; also recorded: translucent and had not dissolved completely
– | – | – | C[C@H](CNC[C@H](C)c1ccccc1)NS(=O)(=O)c1ccc2cnccc2c1.Cl.Cl [compound (4), N—[(R)-1-{(R)-2-phenyipropylamino}propan-2-yl]isoquinoline-6-sulfonamide dihydrochloride, reference compound] | – | – | – | marked appearance change due to moisture absorption | – | – | –
